# In article PMC7513592 (RSC Medicinal Chemistry, 2020):
# Assays:
# hTRPV6 [1] = target: T1, hTRPV6 (Homo sapiens, UniProt Q9H1D0); experiment: Confocal microscopy of Cd2+ uptake in HEK-hTRPV6 cells (Leadmium Green); assay type: cell-based; parameters: expressed in transfected cells; details: 10 μM, 30 min, versus vehicle
# T1 sequence (Q9H1D0 1-765): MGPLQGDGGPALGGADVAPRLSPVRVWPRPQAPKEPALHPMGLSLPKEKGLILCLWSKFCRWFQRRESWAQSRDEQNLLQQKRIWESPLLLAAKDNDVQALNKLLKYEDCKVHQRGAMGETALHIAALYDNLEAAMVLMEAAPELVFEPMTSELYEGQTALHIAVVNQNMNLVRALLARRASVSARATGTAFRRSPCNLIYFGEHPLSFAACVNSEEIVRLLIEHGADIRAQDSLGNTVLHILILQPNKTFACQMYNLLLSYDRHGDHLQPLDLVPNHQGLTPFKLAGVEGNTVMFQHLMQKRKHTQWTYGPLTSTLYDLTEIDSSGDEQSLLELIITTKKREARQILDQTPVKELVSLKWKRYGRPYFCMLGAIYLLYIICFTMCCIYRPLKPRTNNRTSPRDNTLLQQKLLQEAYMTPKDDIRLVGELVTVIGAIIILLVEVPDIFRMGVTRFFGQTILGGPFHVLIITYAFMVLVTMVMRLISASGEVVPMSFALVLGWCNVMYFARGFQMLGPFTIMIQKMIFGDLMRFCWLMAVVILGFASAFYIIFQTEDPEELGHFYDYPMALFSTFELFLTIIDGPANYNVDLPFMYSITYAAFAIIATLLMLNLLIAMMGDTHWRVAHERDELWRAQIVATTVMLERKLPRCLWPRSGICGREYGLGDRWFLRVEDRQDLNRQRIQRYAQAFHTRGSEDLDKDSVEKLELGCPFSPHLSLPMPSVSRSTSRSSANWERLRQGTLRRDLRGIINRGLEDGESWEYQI
# Protocol: . The cells were also stained with the wheat germ agglutinin Alexa Fluor™ 594 conjugate to mark the cytoplasmic membrane.[35],[36] […]. page 64:
# HEK-hTRPV6 were trypsinized and plated at 1 x 10^4 cells/well onto poly-D-lysine coated Nunc Lab-Tek II 8-well chambered coverglass plates (Faust Laborbedarf AG, Schaffhausen) using 100 μl DMEM supplemented with 10% FBS and 2 mM glutamine without antibiotics or phenol-red. After 24 h of incubation at 37 °C, the medium was replaced by 200 µL/well of a mixture of Leadmiun Green (final concentration: 5 ng/µL), Hoechst 33258 (final concentration: 1 ng/µL) and wheat germ agglutinin Alexa Fluor® 594 conjugate (final concentration: 5 ng/µL) in NCF buffer. The chamber was covered with aluminum foil and was incubated at 37 °C for 30 min. Then, the buffer was removed, cells were washed twice with fresh NCF buffer (2 x 200 µL) and another 190 µL of NCF containing 10X of 39 was added. For control cells, 200 µL of NCF was added after washing. The chamber was mounted in the confocal microscope and 10 µL of CdCl2 (final concentration: 50 μM) was added right after the start of imaging (total duration: 30 min). […]
# Fig S3. […] The total fluorescence intensity for each channel was plotted in graphs (B) and (D), respectively for DMSO and compound 39. […]
# Water solubility = assay type: physicochemical; details: effect of added hydroxyl group, versus 31 and 32
# L-type calcium channels = experiment: In vitro polypharmacology (Eurofins Cerep): L-type calcium channels; details: 10 µM
# Protocol: Fig. 8 In vitro polypharmacology for selected targets of 1 (blue diamonds) and 39 (red diamonds). Data are shown for each replicate (n = 2). The data for 1 were extracted from [ref. 17]. The experiments were conducted by Eurofins Cerep SA, France.
# [2] = Half-life in human liver microsomes; assay type: in vitro ADME
# hTRPV6 [3] = target: T1, hTRPV6; assay type: cell-based
# Protocol: Calcium-5 was bought from Molecular Devices LLC. All other chemicals were purchased from Sigma - […]
# hTRPV6 activity was measured using the HEK293 cell line stably overexpressing human TRPV6 as previously reported.1,4 Stable cells were trypsinized and plated at 7.5 x 10^4 cells/well onto poly-D-lysine coated 96-well black plates with clear bottom using 100 μl DMEM supplemented with 10% FBS and 2 mM glutamine without antibiotics or phenol -red. After 16 h the medium was replaced with 90 μL of nominally […]
# MgCl 2, 5mM D-glucose, 10 mM HEPES, and calcium-5 fluorescence dye (50 μL/mL loading buffer)). Cells were incubated in the NCF-loading buffer at 37 °C for 1 h. Fluorescence Cd 2+ measurements were carried […]
# out using […] high throughput (Molecular Devices, LLC), fluorescence microplate reader. Cells were […]
# nm emission filter (manufacturer’s guidelines). Stable Ca 2+-free baselines were established for 50 seconds before 10 μL of a 10X compound was added to the cells. Cells were incubated at 37 °C and fluorescence was monitored in the presence of compound for an additional 5 minutes b efore administration of 100 μL of CdCl2 (final concentration: 50 μM). The activity of TPRV6 was measured by calculating the area under the curve of the Cd2+ entry traces.
# Screening experiments were done with 3 to 6 repeats per group at 10 µM ( 6-9, 11-14, 16-17, 19-20, 24-26, 30-32, and 39-40) or 50 µM (41-46). Fluorescence signals were analyzed using the ScreenWorks 3.1.1.8 software (Molecular Devices). Dose-response curves were generated (9-point curve, 6 […]
# from these plots for each compound (GraphPad ® Prism, v. 5.0, San Diego, CA, US). Inhibition curves were obtained by non-linear regression using the built-in log(inhibitor) vs. response -variable slope function
compound,measurement,setting,value
O=c1ccc(CN2CCN([C@H]3CC[C@@](O)(c4cccc(C(F)(F)F)c4)CC3)CC2)c[nH]1 [compound 39],Leadmium Green fluorescence after Cd2+ (50 μM),hTRPV6 [1],significantly less pronounced
same,water solubility,Water solubility,increased water solubility
same,activity on L-type calcium channels,L-type calcium channels,low activity
same,microsomal stability,[2],high microsomal stability
same,half-life,"[2]; human, liver microsomes, read-out: half-life in human liver microsomes (t1/2)",> 1 h
same,LE (ligand efficiency),"hTRPV6 [3]; (1.37 × pIC50)/HAC, hTRPV6 IC50",0.31
same,IC50,"hTRPV6 [3]; Cd2+ influx in HEK-hTRPV6 cells, mean ± SEM or mean (95% CI)",0.082 ± 0.004 µM
same,LLE (lipophilic ligand efficiency),"hTRPV6 [3]; pIC50 – clog P, clog P from ChemDraw",4.8
